Legend:
[1] = test system: caspase 8 in HCT116 GFP-Trap immunoprecipitates; experiment: Caspase 8 activity (caspase glo 8) of GFP immunoprecipitates (beads); type: cell-based, Homo sapiens
Description: (§1) 15 cm dishes were seeded with 4 million HCT116 cells and allowed to recover for 18 hr prior to transfection. Samples were then transfected for 24 hr with the GFP-tagged ER trafficked protein, cytosolic GFP, or empty vector. To harvest apoptotic and living cells for each sample, all media and washes were collected. Cells were scraped in 2 ml of cold PBS and combined with the media and washes. Samples were centrifuged to pellet cells, washed with 1 ml cold PBS, and flash frozen in liquid N2 prior to lysis.
(§2) The cell pellets were resuspended in 750 μl of 30 mM HEPES pH 7.2, 150 mM NaCl, 1% Triton X-100 with 1x Roche protease inhibitor cocktail (if used subsequently for caspase glo 8 assay) or with 5x Roche protease inhibitor cocktail (if used for immunoblotting). The cells were lysed by mechanical shearing through a 25G needle for 13–15 plunges followed by incubation on ice for 30 min. The lysate was centrifuged at 2000xg for 5 min to remove debris and then incubated with 30 μl of GFP-Trap magnetic agarose beads (Chromotek gtma-20) for 4 hr at 4°C. The beads were then washed with 750 μl of lysis buffer for 10 min at 4°C for three rounds.
For measuring caspase activity, a fifth of the beads was resuspended in 40 μl of 30 mM HEPES pH 7.2, 150 mM NaCl, 1% Triton X-100. 10 μl of the resuspended mixture was incubated with 10 ul of the caspase glo 8 luminogenic substrate (Promega #PRG8200) for 45 min at RT before measuring luminescence.

[2] = test system: caspase 8 in HCT116 lysates; experiment: Caspase 8 activity (caspase glo 8) of cell lysates / IP inputs; type: cell-based, Homo sapiens; conditions: for average fold change relative to empty: HCT116, rep 1, average of 4 dilutions; for norm RLUs: normalized by lysate quant
How it was run: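 HCT116 cells lysed in 30 mM HEPES pH 7.2, 150 mM NaCl, 1% Triton X-100 by needle shearing, 30 min on ice, cleared at 1000xg. Supernatant diluted 1:25-1:100 and incubated 45 min at RT with luminogenic caspase-8 substrate; luminescence read.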

[3] = test system: DR5; experiment: GFP immunoprecipitation: DR5 (FADD, caspase 8) recovered with GFP-tagged protein, Western blot; type: cell-based, Homo sapiens; conditions: for fraction of DR5 IP'ed: GFP IP
Description: as §1, §2
For Western blots, samples were eluted by adding 35 μl of non-reducing SDS gel loading buffer (50 mM Tris-HCl (pH 6.8), 2% SDS, 0.1% bromophenol blue, 10% glycerol) and incubated for 10 min at 70°C. The beads were then magnetically removed from the eluted sample before adding DTT to a final concentration of 25 mM. The entire sample was loaded onto the gel and immunoblotted for DR5, caspase 8, and GFP, in that order.

[4] = test system: HCT116 cells; experiment: Annexin V (and SytoxBlue) flow cytometry for apoptosis; type: cell-based, Homo sapiens
How it was run: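 HCT116 cells transfected with the specified plasmid for 24 hr, trypsinized and allowed 30 min recovery at 37°C. Stained with Annexin V-AlexaFluor 647 (1:20) for 15 min at RT in the dark; apoptotic cell distribution determined by flow cytometry.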

[5] = test system: XBP1 mRNA in HCT116 cells; experiment: RT-PCR for Xbp1 mRNA splicing; type: cell-based, Homo sapiens; conditions: HCT116, 24 hr
Description: Cells were grown in 6-well plates and harvested with 0.5 ml of TRIzol reagent (Life Technologies) per manufacturer's protocol to extract RNA. […] The reverse transcription product was diluted to 200 μl with 10 mM Tris-HCl pH 8.2 and used at 1:100 dilution for subsequent RT-PCR reactions. 2 μl of cDNA was added to 0.2 μM of forward and reverse primers ([…]; Hs_XBP1_Rev: [NT]), 0.2 mM of each dNTP, 0.5 units of Taq DNA polymerase (Thermo Scientific). The reaction was set at an annealing temperature of 60.5°C with an extension time of 30 s for 26 cycles.

[6] = test system: GFP (340+341); experiment: qPCR of GFP transcript (expression of GFP-tagged construct); type: cell-based; conditions: Rep 2; for avg. fold induction GFP (340+341) / fold induction GFP (340+341): vs 24 hr cytoGFP (empty traffo)

RHO-GFP: GFP-tagged rhodopsin expressed from plasmid
caspase 8 activity of immunoprecipitates ([1]; GFP pulldown): enriched for DR5 protein and caspase 8 activity more robustly than INS-GFP | Mean ± SEM (IP) ([1]; GFPTrap beads, relative to GFP, n=3): 4.840 ± 0.2227, n=3 | fold change relative to GFP (GFPTrap beads) ([1]; Rep 1): 4.68 fold change | fold change relative to GFP (GFPTrap beads) ([1]; Rep 2): 4.56 fold change | fold change relative to GFP (GFPTrap beads) ([1]; Rep 3): 5.28 fold change | average fold change relative to GFP (GFPTrap beads) ([1]; average of replicates): 4.84 fold change | GFPTrap beads RLUs ([1]; replicate 1): 329.286 RLUs | GFPTrap beads RLUs ([1]; replicate 2): 320.842 RLUs | GFPTrap beads RLUs ([1]; replicate 3): 371.502 RLUs | 95% confidence interval of difference (IP) ([1]; vs. GFP): 3.209 to 4.472 | Difference between means (IP) ([1]; vs. GFP): 3.840 ± 0.2275 | average fold change relative to empty ([2]; siDR5): 1.375 fold change | average fold change relative to empty ([2]; siNT): 3.026 fold change | fold change in caspase 8 activity relative to GFP ([2]; input lysates GFP vs INS vs RHO, Rep1): 3.178 fold | fold change in caspase 8 activity relative to GFP ([2]; input lysates GFP vs INS vs RHO, Rep2): 3.026 fold | avg fold change in caspase 8 activity relative to GFP ([2]; input lysates GFP vs INS vs RHO, average of Rep1 and Rep2): 3.102 fold | Mean ± SEM (lysate inputs) ([2]; lysate inputs, relative to GFP, n=2): 3.102 ± 0.07579, n=2 | average fold change relative to GFP ([2]; rep 2, average of 3 dilutions): 3.178 fold change | norm RLUs ([2]; rep 2, dilution 0.025): 2013.77 RLUs | norm RLUs ([2]; rep 2, dilution 0.05): 4641.15 RLUs | norm RLUs ([2]; rep 2, dilution 0.1): 10576.5 RLUs | 95% confidence interval of difference (lysate inputs) ([2]; vs. GFP): 1.776 to 2.428 | Difference between means (lysate inputs) ([2]; vs. GFP): 2.102 ± 0.07579 | fraction of DR5 IP'ed ([3]; sheet 2018-04-13 rep 2): 0.05356 | fraction of DR5 IP'ed ([3]; sheet 2018-09-20 rep 1): 0.05459 | fraction IP'ed ([3]; Rep 1 (second series)): 0.05356 | fraction IP'ed ([3]; Rep 2 (second series)): 0.05459 | % IP'ed ([3]; average of all replicates): 5.408% | fraction IP'ed, average ([3]; average of all replicates): 0.05408 | Mean ± SEM (fraction IP'ed) ([3]; unpaired t test sheet, GFP n=5, MPZ n=3, INS n=2, RHO n=2): 0.05408 ± 0.0005162, n=2 | 95% confidence interval (difference between means) ([3]; vs. GFP, fraction IP'ed): 0.01226 to 0.07547 | Difference between means ([3]; vs. GFP, fraction IP'ed, ± SEM): 0.04386 ± 0.01229 | PARP cleavage and annexin V staining ([4]; HCT116, transfected 24 hr, Nt or DR5 siRNA): induced PARP cleavage and annexin V staining in a DR5-dependent manner | Mean ± SEM (siDR5), Annexin V ([4]; siDR5, N=3): 19 ± 0.033 N=3 | 95% confidence interval of difference, Annexin V ([4]; siDR5 vs. siNt): -22 to -5.1 | Difference between means, Annexin V ([4]; siDR5 vs. siNt): -13 ± 3.0 | Mean ± SEM (siNt), Annexin V ([4]; siNt, N=3): 33 ± 3.0 N=3 | XBP1 mRNA splicing [5]: induced XBP1 mRNA splicing | 2^-(deltaCq) GFP (340+341) ([6]; 3 hr, replicate 1): 0.5385 | Cq GFP (340+341) ([6]; 3 hr, replicate 1): 20.6309 | Cq(sample) - avg Cq(GAPDH), GFP (340+341) ([6]; 3 hr, replicate 1): 0.893 | 2^-(deltaCq) GFP (340+341) ([6]; 3 hr, replicate 2): 0.6201 | Cq GFP (340+341) ([6]; 3 hr, replicate 2): 20.4274 | Cq(sample) - avg Cq(GAPDH), GFP (340+341) ([6]; 3 hr, replicate 2): 0.6895 | 2^-(deltaCq) GFP (340+341) ([6]; 3 hr, replicate 3): 0.5059 | Cq GFP (340+341) ([6]; 3 hr, replicate 3): 20.721 | Cq(sample) - avg Cq(GAPDH), GFP (340+341) ([6]; 3 hr, replicate 3): 0.9831 | avg. fold induction GFP (340+341) ([6]; 3 hr, mean of 3 replicates): 0.02018 | fold induction GFP (340+341) ([6]; 3 hr, replicate 1): 0.01959 | fold induction GFP (340+341) ([6]; 3 hr, replicate 2): 0.02256 | fold induction GFP (340+341) ([6]; 3 hr, replicate 3): 0.0184 | 2^-(deltaCq) GFP (340+341) ([6]; 7 hr, replicate 1): 2.306 | Cq GFP (340+341) ([6]; 7 hr, replicate 1): 18.4525 | Cq(sample) - avg Cq(GAPDH), GFP (340+341) ([6]; 7 hr, replicate 1): -1.205 | 2^-(deltaCq) GFP (340+341) ([6]; 7 hr, replicate 2): 2.483 | Cq GFP (340+341) ([6]; 7 hr, replicate 2): 18.3457 | Cq(sample) - avg Cq(GAPDH), GFP (340+341) ([6]; 7 hr, replicate 2): -1.312 | 2^-(deltaCq) GFP (340+341) ([6]; 7 hr, replicate 3): 2.811 | Cq GFP (340+341) ([6]; 7 hr, replicate 3): 18.1671 | Cq(sample) - avg Cq(GAPDH), GFP (340+341) ([6]; 7 hr, replicate 3): -1.4909 | avg. fold induction GFP (340+341) ([6]; 7 hr, mean of 3 replicates): 0.09215 | fold induction GFP (340+341) ([6]; 7 hr, replicate 1): 0.08389 | fold induction GFP (340+341) ([6]; 7 hr, replicate 2): 0.09033 | fold induction GFP (340+341) ([6]; 7 hr, replicate 3): 0.1022 | avg. 2^-(deltaCq) GFP (340+341) ([6]; 24 hr, mean of 3 replicates): 71.8905 | 2^-(deltaCq) GFP (340+341) ([6]; 24 hr, replicate 1): 62.5314 | Cq GFP (340+341) ([6]; 24 hr, replicate 1): 13.0515 | Cq(sample) - avg Cq(GAPDH), GFP (340+341) ([6]; 24 hr, replicate 1): -5.967 | 2^-(deltaCq) GFP (340+341) ([6]; 24 hr, replicate 2): 61.8163 | Cq GFP (340+341) ([6]; 24 hr, replicate 2): 13.0681 | Cq(sample) - avg Cq(GAPDH), GFP (340+341) ([6]; 24 hr, replicate 2): -5.95 | 2^-(deltaCq) GFP (340+341) ([6]; 24 hr, replicate 3): 91.3236 | Cq GFP (340+341) ([6]; 24 hr, replicate 3): 12.5051 | Cq(sample) - avg Cq(GAPDH), GFP (340+341) ([6]; 24 hr, replicate 3): -6.513 | avg. fold induction GFP (340+341) ([6]; 24 hr, mean of 3 replicates): 2.615 | fold induction GFP (340+341) ([6]; 24 hr, replicate 1): 2.275 | fold induction GFP (340+341) ([6]; 24 hr, replicate 2): 2.2486 | fold induction GFP (340+341) ([6]; 24 hr, replicate 3): 3.322

From article PMC7041945, “Misfolded proteins bind and activate death receptor 5 to trigger apoptosis during unresolved endoplasmic reticulum stress” (eLife, 2020)
